Measurements: patent US20240308976A1, “COMPOUNDS THAT MEDIATE PROTEIN DEGRADATION AND USES THEREOF” (Monte Rosa Therapeutics, Inc., priority 2021, published 2024)

Target: T1, GSPT1 (Homo sapiens, UniProt P15170+Q96SW2)
T1 construct: CAL-51 cells were purchased from DSMZ (cat. Number ACC302); host or cells: CAL-51
Assay: Immunofluorescence assay for activity to degrade GSPT1 in CAL-51 cells
Assay type: cell-based
Conditions: 6 h treatment, read-out: IF Class (GSPT1 degradation, DC50)
Method: Example 147: Compound Activity by Immunofluorescence Assay
The representative compounds were tested in an immunofluorescence assay for their activity to degrade GSPT1. CAL-51 cells were purchased from DSMZ (cat. Number ACC302), sub-cultured in 90% Dulbecco's MEM (4.5 g/L glucose, Gibco 11965)+10% heat inactivated FBS (BioConcept, 2-01F136I) and incubated at 37° C., 5% CO2. For the assay imaging microtiter plate Cell Carrier 96 Ultra (Perkin Elmer 6055302) were pre-coated with Fibronectin (Sigma F085, 30 μL at 0.2 μg/mL) in PBS (100 μL, Gibco 14190) for 45 min at room temperature, rinsed with PBS and CAL-51 cells (30K cells/well) were plated and let to adhere overnight. Cells were treated with compounds typically using a serial dilution ranging from 30 μM to 0.1 nM for 6 h. Compounds were stored at 10 mM DMSO stocks. Vehicle (DMSO), positive (CC-885, 10 μM) and rescue controls (positive control plus 0.2 μM bortezomib) were also included at this stage. Cells were subsequently rinsed with PBS and fixed in 10% Formalin solution (50 μL, Sigma HT5011)) for 20 mins at room temperature. Following three consecutive PBS washes (100 μL), cells were permeabilized in 0.1% Triton X-100 in PBS (Sigma 93443, 50 μL) for 15 min. at room temperature. Following three further PBS washes, 50 μL blocking buffer (1% BSA, Sigma A4503, in PBS) was added for 45 min for signal-to noise reduction. Primary antibody (human GSPT1, Sigma HPA052488) was diluted in blocking buffer (dil.1/300, 35 μL/well) and incubated with the cells overnight at 4° C. After three PBS washes, Alexa-fluor 488 coupled secondary antibodies (Invitrogen, A32731, dil. 1/1000), Alexa-fluor 647-Phalloidin (Invitrogen, A22287, dil. 1/200) and DAPI (Thermo, #62248, dil. 1/1000) were diluted in blocking buffer and incubated with the samples for 2 h at room temperature. After three final PBS washes, samples were conserved in 100 μL PBS in the dark, until measurement. Image acquisition was performed on the Operetta High-Content Imager (Perkin-Elmer). Fluorescence intensity of […] (GSPT1), Alexa-Fluor 647 (Actin) and DAPI (Nucleus) were measured. For the determination of GSPT1 DC50 values, a custom algorithm implemented in the PerkinElmer image analysis software Harmony-Acapella® was developed. After user-defined setting of adjustment parameters, the analysis was run identically without human intervention for all image fields. DAPI staining of the nuclei was used to determine the location of cells using standard nuclei detection modules. Segmentation artifacts were removed by threshold-based filters for area, roundness and intensity. The outline of the cells was determined analogously from the sum of the normalized, smoothed DAPI and Actin channel, starting from each nucleus. The Alexa-Fluor 488 (GSPT1) signal intensity in each cell was finally measured, in order to obtain a Mean intensity per cell. GSPT1 degradation (DC50) was calculated after normalization to controls and data import in CDD vault Database, using non-linear regression.
In Table 2, each compound is assigned a class (HTRF class) indicating the ability for Cereblon binding by means of their HTRF IC50 values according to […]: A, B, C or D. According to the code, A represents an IC50 value of ≤100 nM, B represents an IC50 value>100 nM and ≤1000 nM, C represents an IC50 value>1000 nM. IF Class assigns each compound a code indicating the ability for GSPT1 degradation: A, B or C. According to the code, A represents a DC50 value of ≤30 nM, B represents a DC50 value>30 nM and ≤300 nM and C represents a DC50 value of >300 nM.

T1 sequence (P15170 whole entry): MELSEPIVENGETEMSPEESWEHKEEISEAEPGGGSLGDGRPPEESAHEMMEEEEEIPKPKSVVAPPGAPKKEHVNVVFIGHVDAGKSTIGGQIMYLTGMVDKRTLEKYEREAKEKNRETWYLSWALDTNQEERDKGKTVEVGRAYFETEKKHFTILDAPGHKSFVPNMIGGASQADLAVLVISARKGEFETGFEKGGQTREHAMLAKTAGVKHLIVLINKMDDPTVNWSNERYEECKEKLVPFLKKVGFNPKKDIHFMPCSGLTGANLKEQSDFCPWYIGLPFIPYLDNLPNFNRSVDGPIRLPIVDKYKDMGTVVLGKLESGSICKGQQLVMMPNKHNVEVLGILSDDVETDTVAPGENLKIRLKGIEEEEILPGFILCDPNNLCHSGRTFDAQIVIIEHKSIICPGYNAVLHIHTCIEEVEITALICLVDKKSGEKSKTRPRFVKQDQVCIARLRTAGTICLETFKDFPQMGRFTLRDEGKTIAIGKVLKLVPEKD
T1 sequence (Q96SW2 whole entry): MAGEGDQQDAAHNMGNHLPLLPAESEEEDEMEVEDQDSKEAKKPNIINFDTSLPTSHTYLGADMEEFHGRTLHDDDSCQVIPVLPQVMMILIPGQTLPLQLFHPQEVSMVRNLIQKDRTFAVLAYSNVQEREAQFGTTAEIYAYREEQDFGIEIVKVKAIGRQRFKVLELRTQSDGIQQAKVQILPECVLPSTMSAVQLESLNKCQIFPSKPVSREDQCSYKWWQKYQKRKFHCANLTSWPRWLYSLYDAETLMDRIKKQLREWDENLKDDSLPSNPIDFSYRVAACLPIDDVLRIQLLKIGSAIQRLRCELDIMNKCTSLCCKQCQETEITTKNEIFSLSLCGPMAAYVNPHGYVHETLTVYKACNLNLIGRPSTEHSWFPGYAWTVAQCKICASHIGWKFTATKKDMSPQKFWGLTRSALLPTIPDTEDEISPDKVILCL
T1 sequence (Q16531 2-1140 partner limits assumed): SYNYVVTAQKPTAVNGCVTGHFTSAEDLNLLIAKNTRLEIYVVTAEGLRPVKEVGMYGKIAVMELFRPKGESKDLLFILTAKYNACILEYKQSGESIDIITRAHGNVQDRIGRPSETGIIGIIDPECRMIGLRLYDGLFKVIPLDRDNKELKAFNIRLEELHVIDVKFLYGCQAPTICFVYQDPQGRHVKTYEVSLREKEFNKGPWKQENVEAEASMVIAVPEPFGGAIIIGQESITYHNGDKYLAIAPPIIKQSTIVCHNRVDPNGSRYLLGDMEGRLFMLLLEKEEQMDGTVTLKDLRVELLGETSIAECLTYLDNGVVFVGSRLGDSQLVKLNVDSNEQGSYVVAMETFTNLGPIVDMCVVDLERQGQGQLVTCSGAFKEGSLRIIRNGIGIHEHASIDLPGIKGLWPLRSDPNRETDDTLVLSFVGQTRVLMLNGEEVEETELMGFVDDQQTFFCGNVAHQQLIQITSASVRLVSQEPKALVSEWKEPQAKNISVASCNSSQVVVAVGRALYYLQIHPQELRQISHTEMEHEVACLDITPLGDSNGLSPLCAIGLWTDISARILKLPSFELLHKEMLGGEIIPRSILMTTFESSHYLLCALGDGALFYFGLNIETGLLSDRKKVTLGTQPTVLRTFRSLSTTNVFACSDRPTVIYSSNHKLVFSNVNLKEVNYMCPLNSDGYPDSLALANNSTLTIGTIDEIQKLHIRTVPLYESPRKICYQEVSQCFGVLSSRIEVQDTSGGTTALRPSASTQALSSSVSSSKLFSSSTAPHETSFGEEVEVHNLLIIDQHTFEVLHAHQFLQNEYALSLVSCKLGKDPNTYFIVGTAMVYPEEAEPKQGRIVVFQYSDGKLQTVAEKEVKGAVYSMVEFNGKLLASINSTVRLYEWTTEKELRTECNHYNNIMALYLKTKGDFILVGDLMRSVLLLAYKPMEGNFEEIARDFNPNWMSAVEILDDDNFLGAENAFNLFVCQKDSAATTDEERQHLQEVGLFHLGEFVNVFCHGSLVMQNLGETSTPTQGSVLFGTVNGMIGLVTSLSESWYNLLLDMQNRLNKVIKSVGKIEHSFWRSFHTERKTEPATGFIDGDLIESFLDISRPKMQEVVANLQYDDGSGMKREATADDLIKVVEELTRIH

Row | DC50 [nM] | Compound
1 | ≤ 30 | O=C1CCC(c2c(F)cc(N3CC(OC(=O)NC45CCC(CC4)CC5)C3)cc2F)C(=O)N1 (centres unmarked) [Compound 98, 1-(4-(2,6-dioxopiperidin-3-yl)-3,5-difluorophenyl)azetidin-3-yl bicyclo[2.2.2]octan-1-ylcarbamate]
2 | > 300 | O=C1CCC(c2c(F)cc(N3CC(OC(=O)N4CC5(COC5)C4)C3)cc2F)C(=O)N1 (centres unmarked) [Compound 105, 1-(4-(2,6-dioxopiperidin-3-yl)-3,5-difluorophenyl)azetidin-3-yl 2-oxa-6-azaspiro[3.3]heptane-6-carboxylate]
3 | ≤ 30 | O=C1CCC(c2c(F)cc(N3CC(OC(=O)NCC45C[C@H]6C[C@@H](C4)C[C@@H](C5)C6)C3)cc2F)C(=O)N1 (stereo partly drawn) [Compound 106, 1-(4-(2,6-dioxopiperidin-3-yl)-3,5-difluorophenyl)azetidin-3-yl((3R,5R,7R)-adamantan-1-ylmethyl) carbamate]
4 | 30 to 300 | O=C1CCC(c2c(F)cc(N3CC(OC(=O)NC4[C@H]5C[C@@H]6C[C@@H](C[C@H]4C6)C5)C3)cc2F)C(=O)N1 (stereo partly drawn) [Compound 107, 1-(4-(2,6-dioxopiperidin-3-yl)-3,5-difluorophenyl)azetidin-3-yl (1R,3S,5R,7R)-adamantan-2-ylcarbamate]
5 | > 300 | COCC(COC)NC(=O)OC1CN(c2cc(F)c(C3CCC(=O)NC3=O)c(F)c2)C1 (centres unmarked) [Compound 108, 1-(4-(2,6-dioxopiperidin-3-yl)-3,5-difluorophenyl)azetidin-3-yl (1,3-dimethoxypropan-2-yl)carbamate]
6 | > 300 | O=C1CCC(c2c(F)cc(N3CC(OC(=O)NCCC(F)(F)F)C3)cc2F)C(=O)N1 (centres unmarked) [Compound 109, 1-(4-(2,6-dioxopiperidin-3-yl)-3,5-difluorophenyl)azetidin-3-yl (3,3,3-trifluoropropyl)carbamate]
7 | > 300 | O=C1CCC(c2c(F)cc(N3CC(NC(=O)N[C@@H]4CCC(F)(F)C4)C3)cc2F)C(=O)N1 (stereo partly drawn) [Compound 111, 1-((R)-3,3-difluorocyclopentyl)-3-(1-(4-(2,6-dioxopiperidin-3-yl)-3,5-difluorophenyl)azetidin-3-yl)urea]
8 | 30 to 300 | O=C1CCC(c2c(F)cc(N3CC(OC(=O)NC45CCC(C4)C5)C3)cc2F)C(=O)N1 (centres unmarked) [Compound 112, 1-(4-(2,6-dioxopiperidin-3-yl)-3,5-difluorophenyl)azetidin-3-ylbicyclo[2.1.1]hexan-1-ylcarbamate]
9 | > 300 | CN1CCC(CNC(=O)OC2CN(c3cc(F)c(C4CCC(=O)NC4=O)c(F)c3)C2)CC1 (centres unmarked) [Compound 114, 1-(4-(2,6-dioxopiperidin-3-yl)-3,5-difluorophenyl)azetidin-3-yl((1-methylpiperidin-4-yl)methyl)carbamate]
10 | ≤ 30 | C[C@H](NC(=O)OC1CN(c2cc(F)c(C3CCC(=O)NC3=O)c(F)c2)C1)C1CCCCC1 (stereo partly drawn) [Compound 115, 1-(4-(2,6-dioxopiperidin-3-yl)-3,5-difluorophenyl)azetidin-3-yl((S)-1-cyclohexylethyl)carbamate]
11 | ≤ 30 | O=C1CCC(c2c(F)cc(N3CC(OC(=O)NC4CCSCC4)C3)cc2F)C(=O)N1 (centres unmarked) [Compound 116, 1-(4-(2,6-dioxopiperidin-3-yl)-3,5-difluorophenyl)azetidin-3-yl(tetrahydro-2H-thiopyran-4-yl)carbamate]
12 | > 300 | O=C1CCC(c2c(F)cc(N3CC(OC(=O)NCC4CCOCC4)C3)cc2F)C(=O)N1 (centres unmarked) [Compound 117, 1-(4-(2,6-dioxopiperidin-3-yl)-3,5-difluorophenyl)azetidin-3-yl ((tetrahydro-2H-pyran-4-yl)methyl)carbamate]
13 | > 300 | CSCCNC(=O)OC1CN(c2cc(F)c(C3CCC(=O)NC3=O)c(F)c2)C1 (centres unmarked) [Compound 118, 1-(4-(2,6-dioxopiperidin-3-yl)-3,5-difluorophenyl)azetidin-3-yl(2-(methylthio)ethyl)carbamate]
14 | > 300 | CO[C@H]1CC[C@@H](NC(=O)OC2CN(c3cc(F)c(C4CCC(=O)NC4=O)c(F)c3)C2)CC1 (stereo partly drawn) [Compound 119, 1-(4-(2,6-dioxopiperidin-3-yl)-3,5-difluorophenyl) azetidin-3-yl ((1S,4S)-4-methoxycyclohexyl) carbamate]
